According to patent publication US8361968B2 (Takeda Pharmaceutical Company Limited, priority 2002, dated 2013):
Numbered stars: 1 amine (or outer) side, 2 acyl side, 3 side chain; on linkers, the order of the positions; unused ones are H or OH. Square brackets hold non-standard residues; d marks the D form. Ends that are not written are not given here. Peptide text beside a SMILES is read from it. * marks the point of attachment. X12 = CNC(=N)NCCC[C@H](NC(=O)[C@H](CC(C)C)NCCN*)C(=O)N[C@@H](Cc1ccccc1)C(N)=O; X11 = O=C(CNC(=S)[C@H](Cc1ccccc1)N[*:1])[*:2]; Acetyl(2-(4-imidazolyl)) = O=C(Cc1c[nH]cn1)*; Phe(3-Cl) = N[C@@H](Cc1cccc(Cl)c1)C(=O)O; Phe(2-Cl) = N[C@@H](Cc1ccccc1Cl)C(=O)O; Arg(Me) = CNC(=N)NCCC[C@H](N)C(=O)O; 4Pal = N[C@@H](Cc1ccncc1)C(=O)O; Cha = N[C@@H](CC1CCCCC1)C(=O)O; azaGly = NNC(=O)O

Biological target: hOT7T175 (Homo sapiens, UniProt Q969F8, L364H)
Assay: Intracellular Ca ion level-increasing activity using FLIPR in hOT7T175/CHO
Format: cell-based
Parameters: expressed in transfected cells; host or cells: CHO/dhfr- cells, obtained from ATCC
Conditions: relative, Metastin (1-54) = 1

Chain of hOT7T175 (Q969F8 whole entry L364H): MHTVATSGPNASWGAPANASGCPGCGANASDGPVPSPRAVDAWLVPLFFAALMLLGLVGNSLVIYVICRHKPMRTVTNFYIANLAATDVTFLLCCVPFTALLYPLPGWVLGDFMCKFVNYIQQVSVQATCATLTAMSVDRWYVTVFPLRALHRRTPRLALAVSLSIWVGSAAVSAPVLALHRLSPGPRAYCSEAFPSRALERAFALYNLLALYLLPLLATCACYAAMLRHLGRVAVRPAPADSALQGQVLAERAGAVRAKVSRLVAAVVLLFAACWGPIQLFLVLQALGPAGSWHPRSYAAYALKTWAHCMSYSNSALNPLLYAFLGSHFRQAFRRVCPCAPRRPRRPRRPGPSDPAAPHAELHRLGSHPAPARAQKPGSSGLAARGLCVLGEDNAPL

Compound	Specific Activity (intracellular Ca ion level-increasing activity)
CNC(=N)NCCC[C@H](NC(=O)[C@H](CC(C)C)NC(=O)NNC(=O)[C@H](Cc1ccccc1)NC(=O)[C@H](CO)NC(=O)[C@H](CC(N)=O)NC(=O)[C@@H](NC(=O)[C@@H](CC(N)=O)NC(=O)[C@H](N)Cc1ccc(O)cc1)[C@@H](C)O)C(=O)N[C@@H](Cc1ccccc1)C(N)=O [Compound No. 284, D-Tyr-D-Asn-Thr-Asn-Ser-Phe-AzaGly-Leu-Arg(Me)-Phe-NH2] (H-[dY][dN]TNSF[azaGly]L[Arg(Me)]F-NH2)	1
CNC(=N)NCCC[C@H](NC(=O)[C@H](CC(C)C)NC(=O)NNC(=O)[C@H](Cc1ccccc1)NC(=O)[C@H](CO)NC(=O)[C@H](CC(N)=O)NC(=O)[C@H](Cc1ccccc1Cl)NC(=O)[C@H](CC(N)=O)NC(=O)[C@H](N)Cc1ccc(O)cc1)C(=O)N[C@@H](Cc1ccccc1)C(N)=O [Compound No. 247, D-Tyr-Asn-Phe(2Cl)-Asn-Ser-Phe-AzaGly-Leu-Arg(Me)-Phe-NH2] (H-[dY]N[Phe(2-Cl)]NSF[azaGly]L[Arg(Me)]F-NH2)	1
D-Tyr-Asn-Trp-Gln-Ser-Phe-Gly-Leu-Arg(Me)-Phe-NH2 ([dY]NWQSFGL[Arg(Me)]F-NH2; N-terminus assumed; SMILES CNC(=N)NCCC[C@H](NC(=O)[C@H](CC(C)C)NC(=O)CNC(=O)[C@H](Cc1ccccc1)NC(=O)[C@H](CO)NC(=O)[C@H](CCC(N)=O)NC(=O)[C@H](Cc1c[nH]c2ccccc12)NC(=O)[C@H](CC(N)=O)NC(=O)[C@H](N)Cc1ccc(O)cc1)C(=O)N[C@@H](Cc1ccccc1)C(N)=O) [Compound No. 209]	½
CC(C)C[C@H](NC(=O)NNC(=O)[C@H](Cc1ccccc1)NC(=O)[C@H](CO)NC(=O)[C@H](CC(N)=O)NC(=O)[C@H](Cc1c[nH]c2ccccc12)NC(=O)[C@H](CC(N)=O)NC(=O)[C@@H](N)Cc1ccc(O)cc1)C(=O)N[C@@H](CCCNC(=N)N)C(=O)N[C@@H](Cc1ccccc1)C(N)=O [Compound No. 176, Tyr-Asn-Trp-Asn-Ser-Phe-AzaGly-Leu-Arg-Phe-NH2]	5
CNC(=N)NCCC[C@H](NC(=O)[C@H](CC(C)C)NC(=O)CNC(=O)[C@H](CC1CCCCC1)NC(=O)[C@H](CO)NC(=O)[C@H](CC(N)=O)NC(=O)[C@H](Cc1c[nH]c2ccccc12)NC(=O)[C@H](CC(N)=O)NC(=O)[C@H](N)Cc1ccc(O)cc1)C(=O)N[C@@H](Cc1ccccc1)C(N)=O [Compound No. 203, D-Tyr-Asn-Trp-Asn-Ser-Cha-Gly-Leu-Arg(Me)-Phe-NH2] (H-[dY]NWNS[Cha]GL[Arg(Me)]F-NH2)	10
CNC(=N)NCCC[C@H](NC(=O)[C@H](CC(C)C)NC(=O)NNC(=O)[C@H](Cc1ccccc1)NC(=O)[C@H](CO)NC(=O)[C@H](CC(N)=O)NC(=O)[C@H](Cc1c[nH]c2ccccc12)NC(=O)[C@H](CC(N)=O)NC(=O)[C@@H](C)N)C(=O)N[C@@H](Cc1ccccc1)C(N)=O [Compound No. 259, D-Ala-Asn-Trp-Asn-Ser-Phe-AzaGly-Leu-Arg(Me)-Phe-NH2] (H-[dA]NWNSF[azaGly]L[Arg(Me)]F-NH2)	1
3-Pyridylpropionyl-Asn-Ser-Phe-AzaGly-Leu-Arg(Me)-Trp-NH2 [Compound No. 386]	7
CNC(=N)NCCC[C@H](NC(=O)[C@H](CC(C)C)NCCNC(=O)[C@H](Cc1ccccc1)NC(=O)[C@H](CO)NC(=O)[C@H](CC(N)=O)NC(=O)[C@H](Cc1c[nH]c2ccccc12)NC(=O)[C@H](CC(N)=O)NC(=O)[C@H](N)Cc1ccc(O)cc1)C(=O)N[C@@H](Cc1ccccc1)C(N)=O [Compound No. 307, D-Tyr-Asn-Trp-Asn-Ser-Phe-GlyΨ(CH2NH)Leu-Arg(Me)-Phe-NH2] (H-[dY]NWNSF-X12)	1
CNC(=N)NCCC[C@H](NC(=O)[C@H](CC(C)C)NC(=O)NNC(=O)[C@H](Cc1ccccc1)NC(=O)[C@H](CO)NC(=O)[C@H](CC(N)=O)NC(=O)[C@H](Cc1cccc(Cl)c1)NC(=O)[C@H](CC(N)=O)NC(=O)[C@H](N)Cc1ccc(O)cc1)C(=O)N[C@@H](Cc1ccccc1)C(N)=O [Compound No. 248, D-Tyr-Asn-Phe(3Cl)-Asn-Ser-Phe-AzaGly-Leu-Arg(Me)-Phe-NH2] (H-[dY]N[Phe(3-Cl)]NSF[azaGly]L[Arg(Me)]F-NH2)	2
CNC(=N)NCCC[C@H](NC(=O)[C@H](CC(C)C)NC(=O)CNC(=O)[C@H](Cc1ccccc1)NC(=O)[C@H](CO)NC(=O)[C@H](CC(N)=O)NC(=O)[C@@H](NC(=O)[C@H](CC(N)=O)NC(=O)[C@H](N)Cc1ccc(O)cc1)C(C)C)C(=O)N[C@@H](Cc1ccccc1)C(N)=O [Compound No. 229] (H-[dY]NVNSFGL[Arg(Me)]F-NH2)	1
CNC(=N)NCCC[C@H](NC(=O)[C@H](CC(C)C)NC(=O)NNC(=O)[C@H](Cc1ccccc1)NC(=O)[C@H](CO)NC(=O)[C@H](CC(N)=O)NC(=O)[C@H](Cc1ccncc1)NC(=O)[C@@H](CC(N)=O)NC(=O)[C@@H](N)Cc1ccc(O)cc1)C(=O)N[C@@H](Cc1ccccc1)C(N)=O [Compound No. 304, Tyr-D-Asn-Pya(4)-Asn-Ser-Phe-AzaGly-Leu-Arg(Me)-Phe-NH2] (H-Y[dN][4Pal]NSF[azaGly]L[Arg(Me)]F-NH2)	3
Dap-D-Tyr-Asn-Trp-Asn-Ser-Phe-Gly-Leu-Arg(Me)-Phe-NH2 [Compound No. 387]	1
CNC(=N)NCCC[C@H](NC(=O)[C@H](CC(C)C)NC(=O)NNC(=O)[C@H](Cc1ccccc1)NC(=O)[C@H](CO)NC(=O)[C@H](CC(N)=O)NC(=O)[C@H](Cc1ccccc1)NC(=O)[C@@H](CC(N)=O)NC(=O)[C@H](N)Cc1ccc(O)cc1)C(=O)N[C@@H](Cc1ccccc1)C(N)=O [Compound No. 257, D-Tyr-D-Asn-Phe-Asn-Ser-Phe-AzaGly-Leu-Arg(Me)-Phe-NH2] (H-[dY][dN]FNSF[azaGly]L[Arg(Me)]F-NH2)	3
CNC(=N)NCCC[C@H](NC(=O)[C@H](CC(C)C)NC(=O)CNC(=S)[C@H](Cc1ccccc1)NC(=O)[C@H](CO)NC(=O)[C@H](CC(N)=O)NC(=O)[C@H](Cc1c[nH]c2ccccc12)NC(=O)[C@H](CC(N)=O)NC(=O)[C@H](N)Cc1ccc(O)cc1)C(=O)N[C@@H](Cc1ccccc1)C(N)=O [Compound No. 296, D-Tyr-Asn-Trp-Asn-Ser-PheΨ(CSNH)Gly-Leu-Arg(Me)-Phe-NH2] (H-[dY]NWNS[X11]L[Arg(Me)]F-NH2)	3
CC[C@H](C)[C@H](NC(=O)[C@H](CC(N)=O)NC(=O)[C@H](N)Cc1ccc(O)cc1)C(=O)N[C@@H](CC(N)=O)C(=O)N[C@@H](CO)C(=O)N[C@@H](Cc1ccccc1)C(=O)NCC(=O)N[C@@H](CC(C)C)C(=O)N[C@@H](CCCNC(=N)NC)C(=O)N[C@@H](Cc1ccccc1)C(N)=O [Compound No. 206] (H-[dY]NINSFGL[Arg(Me)]F-NH2)	10
CC(C)C[C@H](NC(=O)CNC(=O)[C@H](Cc1ccccc1)NC(=O)[C@H](CO)NC(=O)[C@H](CC(N)=O)NC(=O)[C@H](Cc1c[nH]c2ccccc12)NC(=O)[C@H](CC(N)=O)NC(=O)[C@@H](N)Cc1ccc(O)cc1)C(=O)N[C@@H](CCCNC(=N)N)C(=O)N[C@@H](Cc1ccccc1F)C(N)=O [Compound No. 19]	2
CCNC(=N)NCCC[C@H](NC(=O)[C@H](CC(C)C)NC(=O)CNC(=O)[C@H](Cc1ccccc1)NC(=O)[C@H](CO)NC(=O)[C@H](CC(N)=O)NC(=O)[C@H](Cc1c[nH]c2ccccc12)NC(=O)[C@H](CC(N)=O)NC(=O)[C@H](N)Cc1ccc(O)cc1)C(=O)N[C@@H](Cc1ccccc1)C(N)=O [Compound No. 192]	1
CC(C)C[C@H](NC(=O)CNC(=S)[C@H](Cc1ccccc1)NC(=O)[C@H](CO)NC(=O)[C@H](CC(N)=O)NC(=O)[C@H](Cc1c[nH]c2ccccc12)NC(=O)[C@H](CC(N)=O)NC(=O)[C@@H](N)Cc1ccc(O)cc1)C(=O)N[C@@H](CCCNC(=N)N)C(=O)N[C@@H](Cc1ccccc1)C(N)=O [Compound No. 166, Tyr-Asn-Trp-Asn-Ser-Phe Ψ(CSNH)Gly-Leu-Arg-Phe-NH2] (H-YNWNS[X11]LRF-NH2)	5
CC(C)C[C@H](NC(=O)CNC(=O)[C@H](Cc1ccccc1)NC(=O)[C@H](CO)NC(=O)[C@H](CC(N)=O)NC(=O)[C@H](Cc1c[nH]c2ccccc12)NC(=O)[C@H](CC(N)=O)NC(=O)[C@@H](N)Cc1ccc(O)cc1)C(=O)N[C@@H](CCCNC(=N)N)C(=O)N[C@@H](Cc1ccc([N+](=O)[O-])cc1)C(N)=O [Compound No. 132]	10
CNC(=N)NCCC[C@H](NC(=O)[C@H](CC(C)C)NC(=O)CNC(=O)[C@H](Cc1ccccc1)NC(=O)[C@H](CO)NC(=O)[C@@H](NC(=O)[C@H](Cc1c[nH]c2ccccc12)NC(=O)[C@H](CC(N)=O)NC(=O)[C@H](N)Cc1ccc(O)cc1)[C@@H](C)O)C(=O)N[C@@H](Cc1ccccc1)C(N)=O [Compound No. 208] (H-[dY]NWTSFGL[Arg(Me)]F-NH2)	1
CNC(=N)NCCC[C@H](NC(=O)[C@H](CC(C)C)NC(=O)NNC(=O)[C@H](Cc1ccccc1)NC(=O)[C@H](CO)NC(=O)[C@H](CC(N)=O)NC(=O)[C@H](Cc1c[nH]c2ccccc12)NC(=O)[C@@H](Cc1c[nH]cn1)NC(=O)[C@H](N)Cc1ccc(O)cc1)C(=O)N[C@@H](Cc1ccccc1)C(N)=O [Compound No. 288, D-Tyr-D-His-Trp-Asn-Ser-Phe-AzaGly-Leu-Arg(Me)-Phe-NH2] (H-[dY][dH]WNSF[azaGly]L[Arg(Me)]F-NH2)	1
CNC(=N)NCCC[C@H](NC(=O)[C@H](CC(C)C)NC(=O)NNC(=O)[C@H](Cc1ccccc1)NC(=O)[C@H](CO)NC(=O)[C@H](CC(N)=O)NC(=O)Cc1c[nH]cn1)C(=O)N[C@@H](Cc1ccccc1)C(N)=O [Compound No. 323, 4-Imidazoleacetyl-Asn-Ser-Phe-AzaGly-Leu-Arg(Me)-Phe-NH2] ({Acetyl(2-(4-imidazolyl))}-NSF[azaGly]L[Arg(Me)]F-NH2)	1
